Experimental data: paper PMC12213745, “Compounds from Cyclocarya paliurus leaves inhibit binary division of methicillin-resistant Staphylococcus aureus by disrupting FtsZ dynamic” (Frontiers in Microbiology, 2025)
≈ marks a conversion by molar mass, not a printed value. Like-named read-outs stand apart in the source and are kept apart here.

Legend:
[1] = test system: MRSA-4; experiment: Time-dependent killing assay; format: cell-based, Methicillin-resistant S. aureus; settings: 2 × MIC
Protocol: An overnight culture of MRSA-4 was diluted 1:100 in fresh MHB and incubated at 37°C with shaking (200 rpm) until reaching mid-log phase (OD600 = 0.4–0.6). The culture was then adjusted to 1 × 10^6 CFU/mL and treated with AA, MA, or UA at concentrations of 1×, 2×, and 4 × MIC. 2 × MIC of vancomycin was used as a positive control, and an equivalent volume of DMSO served as the negative control. The cultures were incubated at 37°C with shaking (200 rpm) during the assay. At designated time points (0, 1, 2, 4, 8, and 24 h), samples were collected, serially diluted tenfold in sterile PBS, and 100 μL of appropriate dilutions were plated on LB agar. Plates were incubated at 37°C for 18–24 h, and viable bacteria were quantified. All experiments were performed in biological triplicates.
We next performed time-kill kinetics assays to characterize the time-dependent antibacterial effects of AA, MA, and UA against MRSA-4. Bacterial cultures were exposed to AA, MA, and UA at 1×, 2×, and 4 × their respective MICs, and viable CFU were counted at designated time points (0, 1, 2, 4, 8, and 24 h). As shown in the time-kill curves (Figure 1), treatment with 1 × or 2 × MIC of AA, MA, or UA led to an initial reduction in bacterial load within the first 2 h.

[2] = test system: S. enterica subsp. Enterica (1.1114); experiment: MIC, broth microdilution (CLSI); format: cell-based, Salmonella enterica subsp. enterica; settings: Salmonella enterica
From the text: (§1) Staphylococcus aureus ATCC25923 and Escherichia coli ATCC25922 were obtained from the American Type Culture Collection (ATCC, Manassas, VA, USA). The Methicillin-resistant S. aureus (MRSA) clinical isolate MRSA-4, previously confirmed as mecA-positive and characterized for its antibiotic resistance profile ([Sun et al., 2023]), was used in this study. Staphylococcus epidermidis (GDMCC 1.143), Enterococcus faecalis (GDMCC 1.164), and Salmonella enterica subsp. enterica (GDMCC 1.1114) were obtained from the Guangdong Microbial Culture Collection Center (GDMCC, Guangzhou, China). The Pseudomonas aeruginosa PA14 strain was kindly provided by Professor Min Wu (Southwest Medical University, China). All bacterial strains were routinely cultured in Mueller-Hinton broth (MHB) or Luria-Bertani (LB) broth medium at 37°C with shaking at 200 rpm. Vancomycin was purchased from Solarbio Science & Technology Co., Ltd. (Beijing, China), and oxacillin was obtained from Taiji Group Hengsheng Pharmaceutical Co., Ltd. (Chengdu, China). The polyclonal rabbit primary anti-body to FtsZ was purchased from Abcam PLC (Cambridge, UK). Alexa488-conjugated goat anti-rabbit IgG was purchased from ZSGB-BIO Biotechnology (Beijing, China). DAPI staining solution was purchased from Beyotime Biotechnology (Shanghai, China).
(§2) The minimum inhibitory concentrations (MICs) of the test compounds (AA, MA, and UA) were determined using the standard broth microdilution method in accordance with the Clinical and Laboratory Standards Institute (CLSI) guidelines ([Humphries et al., 2021]). Bacteria were cultured in MHB or LB broth at 37°C with shaking (200 rpm) to the logarithmic phase, then diluted to a final density of 1 × 10^6 CFU/mL. Test compounds (dissolved in DMSO) and positive controls (vancomycin and oxacillin) were diluted in MHB and serially twofold diluted in 96-well plates. Each well was inoculated with 100 μL of bacterial suspension (1 × 10^6 CFU/mL), yielding a final bacterial density of 5 × 10^5 CFU/mL and a total volume of 200 μL. The final concentrations tested were 128 to 1 μg/mL for AA, MA, and UA; 16 to 0.5 μg/mL for vancomycin; and 64 to 0.0625 μg/mL for oxacillin. DMSO was used as a solvent control. Plates were incubated statically at 37°C for 18–24 h. After incubation, the OD600 was measured using a microplate reader (SpectraMax i3x, Molecular Devices, CA, USA). The MIC was defined as the lowest compound concentration that caused ≥ 90% inhibition of bacterial growth compared to the drug-free growth control. All tests were performed in three independent biological replicates.
(§3) Following the isolation and identification of AA, MA, and UA from ECPL, we evaluated their antibacterial activity and spectrum. The MICs of the compounds were determined against MRSA-4, S. aureus ATCC25923, S. epidermidis, and E. faecalis (Gram-positive), as well as P. aeruginosa PA14, E. coli ATCC25922, and S. enterica subsp. Enterica (Gram-negative) using the standard broth microdilution method in accordance with CLSI guidelines ([Humphries et al., 2021]).

[3] = test system: E. faecalis; experiment: MIC, broth microdilution (CLSI); format: cell-based; settings: Enterococcus faecalis
From the text: as §1, §2, §3

[4] = test system: S. aureus ATCC25923; experiment: MIC, broth microdilution (CLSI); format: cell-based; settings: Staphylococcus aureus
From the text: as §1, §2, §3

[5] = test system: P. aeruginosa PA14; experiment: MIC, broth microdilution (CLSI); format: cell-based; settings: Pseudomonas aeruginosa
From the text: as §1, §2, §3

[6] = test system: S. epidermidis (1.143); experiment: MIC, broth microdilution (CLSI); format: cell-based; settings: Staphylococcus epidermidis
From the text: as §1, §2, §3

[7] = test system: E. coli ATCC25922; experiment: MIC, broth microdilution (CLSI); format: cell-based; settings: Escherichia coli
From the text: as §1, §2, §3

[8] = test system: MRSA-4; experiment: MIC, broth microdilution (CLSI); format: cell-based, Methicillin-resistant S. aureus; settings: Staphylococcus aureus
From the text: as §1, §2, §3

[9] = test system: MRSA-4; experiment: SEM analysis, cell long axis; format: cell-based, Methicillin-resistant S. aureus; settings: 2 × MIC, 2 h, mean ± SD, PBS control 0.53 ± 0.04
Protocol: (§4) Scanning electron microscopy (SEM) was used to observe the morphological changes in bacterial cells treated with the isolated compounds. S. aureus ATCC 25923 and MRSA-4 were grown in MHB to mid-log phase (OD600 = 0.4–0.6) as previously described. The bacteria cultures were treated with AA, MA, or UA at 2 × MIC for 2 h at 37°C with shaking at 150 rpm. Untreated cultures (PBS group) served as the growth control. After incubation, bacterial cells were harvested by centrifugation and washed three times with PBS (pH 7.2). Coverslips (8 mm diameter) were cleaned with absolute ethanol under ultrasonication, air-dried, immersed in 0.1% (w/v) chitosan solution (dissolved in 1% acetic acid) for 5 s, and air-dried again at room temperature ([Su et al., 2022]). A 25 μL aliquot of the washed bacterial suspension was added to each coverslip and allowed to adhere for 1 h at room temperature. Adhered cells were fixed with 1 mL of 2.5% (v/v) glutaraldehyde at 4°C overnight. Fixed samples were rinsed 2–3 times with PBS (5 min per rinse), then dehydrated through a graded ethanol series: 50, 70, and 90% ethanol (each once for 5 min), followed by 100% ethanol (three times for 5 min each). After dehydration, samples were air-dried overnight at room temperature. SEM imaging was performed using an EVO 10 scanning electron microscope (Zeiss, Jena, Germany). Cell long-axis statistical analysis was conducted using ImageJ software (Version 1.42q, National Institutes of Health, MD, USA).
(§5) Having established the antibacterial activity of AA, MA, and UA, we next examined their effects on bacterial morphology. We employed SEM to examine the alterations induced by these compounds in S. aureus ATCC25923 and MRSA-4. Bacterial cultures were treated with AA, MA, or UA at 2 × MIC for 2 h, while untreated (PBS group) cultures served as negative controls. […] In PBS groups, both S. aureus ATCC25923 and MRSA-4 maintained typical spherical morphology with smooth and intact surfaces.

[10] = test system: S. aureus ATCC25923; experiment: SEM analysis, cell long axis; format: cell-based, Staphylococcus aureus; settings: 2 × MIC, 2 h, mean ± SD, PBS control 0.52 ± 0.05
Protocol: as §4, §5

SMILES | time to reduce bacterial counts below the detection limit [1] | MIC [2] | MIC [3] | MIC ([4]; ATCC25923) | MIC ([5]; PA14) | MIC [6] | MIC ([7]; ATCC25922) | MIC ([8]; MRSA) | length of long axis of cells [9] | length of long axis of cells [10] | MIC ([2]; S. enterica subsp. Enterica (1.1114), ≥ 90% growth inhibition, 18–24 h, read-out: MIC) | MIC ([3]; E. faecalis, ≥ 90% growth inhibition, 18–24 h, read-out: MIC) | MIC ([4]; S. aureus ATCC25923, ≥ 90% growth inhibition, 18–24 h, read-out: MIC) | MIC ([5]; P. aeruginosa PA14, ≥ 90% growth inhibition, 18–24 h, read-out: MIC) | MIC ([6]; S. epidermidis (1.143), ≥ 90% growth inhibition, 18–24 h, read-out: MIC) | MIC ([7]; E. coli ATCC25922, ≥ 90% growth inhibition, 18–24 h, read-out: MIC) | MIC ([8]; MRSA-4, ≥ 90% growth inhibition, 18–24 h, read-out: MIC)
CN[C@H](CC(C)C)C(=O)N[C@H]1C(=O)N[C@@H](CC(N)=O)C(=O)N[C@H]2C(=O)N[C@H]3C(=O)N[C@H](C(=O)N[C@H](C(=O)O)c4cc(O)cc(O)c4-c4cc3ccc4O)[C@H](O)c3ccc(c(Cl)c3)Oc3cc2cc(c3O[C@@H]2O[C@H](CO)[C@@H](O)[C@H](O)[C@H]2O[C@H]2C[C@](C)(N)[C@H](O)[C@H](C)O2)Oc2ccc(cc2Cl)[C@H]1O [Van, Vancomycin, reference compound] | ≤ 8 h | > 16 µg/mL | 1 µg/mL (≈ 0.69 µM) | 2 µg/mL (≈ 1.38 µM) | > 16 µg/mL | 2 µg/mL (≈ 1.38 µM) | > 16 µg/mL | 2 µg/mL (≈ 1.38 µM) | 0.57 ± 0.06 μm | 0.61 ± 0.06 μm | – | – | – | – | – | – | –
Cc1onc(-c2ccccc2)c1C(=O)N[C@@H]1C(=O)N2[C@@H]1SC(C)(C)[C@@H]2C(=O)O [Oxa, Oxacillin, reference compound] | – | – | – | – | – | – | – | – | – | – | > 64 µg/mL | 8 µg/mL (≈ 19.9 µM) | 0.125 µg/mL (≈ 0.311 µM) | > 64 µg/mL | 0.25 µg/mL (≈ 0.623 µM) | > 64 µg/mL | 64 µg/mL (≈ 159 µM)
